Values after ≈ are worked out from the molar mass of the structure shown. Like-named read-outs stand apart in the source and are kept apart here.
Key:
G. lamblia WB (MtzS) = test: ATP-bioluminescence growth/survival EC50 assay, G. lamblia WB; details: for EC50: Giardia duodenalis; for S.I (CC50/EC50): average cytotoxicity against HEK293 and HepG2 / G. lamblia WB activity
Procedure: (§1) Compounds were screened for antiparasitic activity using an ATP-bioluminescence based assay for cell growth and survival, [24]. […] Viable cell numbers were determined in triplicate using the CellTiter-Glo Luminescent Cell Viability Assay.

G. lamblia 713M3 (MtzR) = test: ATP-bioluminescence growth/survival EC50 assay, G. lamblia 713M3; format: cell-based, Giardia lamblia; details: Giardia duodenalis
Procedure: as §1

E. histolytica HM1:IMSS = test: ATP-bioluminescence growth/survival EC50 assay, E. histolytica; format: cell-based, Entamoeba histolytica; details: Entamoeba histolytica
Procedure: as §1

T. vaginalis F1623 = test: ATP-bioluminescence growth/survival EC50 assay, T. vaginalis; format: cell-based, Trichomonas vaginalis; details: Trichomonas vaginalis
Procedure: as §1

[1] = system: C. difficile 630 (ATCC BAA-1382); test: Broth microdilution MIC assay, C. difficile 630; format: cell-based, Clostridium difficile; details: Clostridioides difficile, ATCCBAA1382
Summary of the method: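 Compounds two-fold serially diluted against overnight anaerobic BHIS cultures of the strain, following CLSI methods modified in broth and inoculum for C. difficile. Plates incubated 24 h at 37 °C; MIC is the lowest concentration without visible growth, median reported with range.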

[2] = system: C. difficile NAP1/027 (ATCC BAA-1803); test: Broth microdilution MIC assay, C. difficile NAP1/027; format: cell-based, Clostridium difficile; details: Clostridioides difficile, ATCCBAA1803; strain NAP1/027
Summary of the method: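 Strains grown anaerobically in BHIS at 37 °C overnight; compounds two-fold serially diluted (64 to 0.03 μg/mL) in pre-reduced medium under anaerobic atmosphere (5% H2, 10% CO2, 85% N2). Plates incubated 24 h at 37 °C; MIC taken as lowest concentration without visible growth, median of replicates reported.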

[3] = Resazurin cytotoxicity assay, HEK293; format: cell-based, Human; details: human, 24 h, highest concentration 100 μM, n = 3, read-out: CC50 HEK 293
Summary of the method: (§2)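 Cells pre-cultured 24 h in DMEM/10% FBS at 37 °C, then exposed 24 h to compound dilution series (top 100 μM). Viability by 5 μM resazurin, 2 h, fluorescence 560/590 nm; 1% Triton X-100 as lysis control; CC50 from curve fitting.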

[4] = Resazurin cytotoxicity assay, HepG2; format: cell-based, Human; details: human, 24 h, highest concentration 100 μM, n = 3, read-out: CC50 Hep G2
Summary of the method: as §2

[5] = Plasma protein binding by ultrafiltration; format: in vitro ADME; details: human; for fraction unbound at 0.5 h, 5 µM: read-out: Plasma protein binding (% bound) (converted)
Procedure: Plasma Protein Binding (PPB) was performed using an Ultrafiltration method, [28]. […] Samples were incubated at […] for 30 min, then centrifuged at 14,000 × g for 8 min, with the clear supernatant transferred to a vial for LC/MS/MS analysis. […] The fraction of unbound compound was calculated by determining the concentration of the filtered sample and the concentration of unfiltered sample. […] LC/MS/MS parameters are detailed in the supplementary information (Supplementary Table 1).

[6] = Metabolic stability in liver microsomes; format: in vitro ADME, human
Procedure: Metabolic stability studies were performed with human liver microsomes (HMMC-PL, Lot# PL050B-B, Thermo Fisher Scientific USA) with test compound (5 μM) degradation monitored by LC/MS/MS analysis. Stock solutions (2.5 mM) of the test compounds were prepared in DMSO. […] The reaction was initiated by addition of NADPH solution (cofactor) in potassium phosphate buffer (final concentration 1 mM). Aliquots (180 μL) from the reaction mixture were withdrawn (t = 0, 10, 30, 60 and 120 min) and quenched by adding ice-cold stop solution (540 μL) comprising 0.5 μM carbutamide internal standard in acetonitrile: methanol: formic acid (1: 1: 0.001). Reaction samples were incubated at 4 °C for 30 min, centrifuged at 14,000 × g for 8 min and the clear supernatant was transferred to a vial for LC/MS/MS analysis. The percentage of compound metabolised at different times was calculated as a percentage of the levels at the start of incubation (t = 0 min sample). Matrix blank was also prepared as a control. […] LC/MS/MS parameters are detailed in the supplementary information (Supplementary Table 1).

T. vaginalis = system: T. vaginalis; design: method as in earlier work; details: cited from earlier work
H. meleagridis = system: H. meleagridis; design: method as in earlier work; details: turkey; cited from earlier work
[7] = system: G. lamblia WB trophozoites; test: Light microscopy of G. lamblia WB growth and survival; format: cell-based, Giardia lamblia; details: for Parasite cell growth by microscopy: 3 × EC50 (metronidazole 18 μM, 12a 1.5 μM), 48 h, relative to vehicle control; for Morphology of treated G. lamblia: 3 × EC50, 48 h, phase contrast
Procedure: The effect of compounds on G. lamblia WB growth and survival was examined by light microscopy. Briefly, stock compounds were diluted in DMSO (100%) to give 400 × final concentration of compound. […]. Assay plates were incubated for 48 h at 37 °C in the GasPak™ EZ Anaerobe Gas Generating Pouch Systems (VWR, West Chester, PA) to maintain anaerobic conditions throughout the incubation period. The assays were performed in triplicate (3 wells/treatment). […]

[8] = cited from earlier work
giardiasis = details: cited from earlier work
Giardia = system: Giardia; design: method as in PMID 23403423; details: cited from earlier work
[9] = read-out: EC50 G. lamblia WB, MtzS strain WB, minimum n = 3
[10] = read-out: pEC50 ± SE G. lamblia WB, MtzS strain WB (converted)
[11] = read-out: EC50 G. lamblia 713M3, MtzR strain 713M3, minimum n = 3
[12] = read-out: pEC50 ± SE G. lamblia 713M3, MtzR strain 713M3 (converted)
[13] = read-out: EC50 E. histolytica HM1:IMSS
[14] = read-out: pEC50 ± SE E. histolytica HM1:IMSS (converted)
[15] = read-out: EC50 T. vaginalis F1623, MtzS, minimum n = 3
[16] = read-out: pEC50 ± SE T. vaginalis F1623, MtzS (converted)
[17] = strain 630, MtzS, median of n = 4, read-out: MIC C. difficile 630
[18] = pooled human plasma (100%), 5 μM, 100% human plasma, 37 °C, 30 min, ultrafiltration
[19] = 5 μM, human liver microsomes 1 mg/mL, NADPH

Row | SMILES | EC50 (G. lamblia WB (MtzS); [9]) [µM] | EC50 (G. lamblia WB (MtzS); [10]) [µM] | S.I (CC50/EC50) (G. lamblia WB (MtzS)) | EC50 (G. lamblia 713M3 (MtzR); [11]) [µM] | EC50 (G. lamblia 713M3 (MtzR); [12]) [µM] | EC50 (E. histolytica HM1:IMSS; [13]) [µM] | EC50 (E. histolytica HM1:IMSS; [14]) [µM] | EC50 (T. vaginalis F1623; [15]) [µM] | EC50 (T. vaginalis F1623; [16]) [µM] | MIC [1, 17] [µg/mL] | MIC [2] [µg/mL] | CC50 at 24 h ([3]; HEK293 cells) [µM] | CC50 at 24 h ([4]; HepG2 cells) [µM] | fraction unbound at 0.5 h, 5 µM [5, 18] | Microsome stability (% remaining at 2 h) [6, 19] [% remaining] | other results
1 | Cn1c([N+](=O)[O-])cnc1C(=O)NCc1ccc(F)cc1 [Compound 8a, N-(4-fluorobenzyl)-1-methyl-5-nitro-1H-imidazole-2-carboxamide] | 3.5 | 3.47 | >29 | 13 | 12.9 | 9.7 | 9.77 | 5.2 | 5.25 | > 64 | > 64 | > 100 | > 100 | 0.05 | 88 | fraction unbound at 30 min, 5 μM ([5]; pooled human plasma (100%), 5 μM, 100% human plasma, 37 °C, 30 min, ultrafiltration, read-out: Plasma protein binding (% bound)): ≤ 0.06
2 | Cn1c([N+](=O)[O-])cnc1C(=O)N1CCOCC1 [Compound 8h, (1-methyl-5-nitro-1H-imidazol-2-yl)(morpholino)methanone] | 1.6 | 1.58 | >63 | 11 | 11.2 | 14 | 14.1 | 0.6 | 0.575 | 32 (≈ 133 µM) | 32 (≈ 133 µM) | > 100 | > 100 | 0.91 | 97 | Activity in in vivo mouse model of T. vaginalis infection (T. vaginalis): activity; Activity in in vivo model of H. meleagridis infection (H. meleagridis): activity
3 | O=C(NCc1ccc(F)cc1)c1ncc([N+](=O)[O-])[nH]1 [Compound 12a, N-(4-fluorobenzyl)-5-nitro-1H-imidazole-2-carboxamide] | 0.5 | 0.525 | – | 2.4 | 2.34 | 3.6 | 3.63 | 2.3 | 2.34 | 4 (≈ 15.1 µM) | 4 (≈ 15.1 µM) | – | – | – | 94 | CC50 at 24 h [3]: > 100 µM; CC50 at 24 h [4]: > 100 µM; Parasite cell growth by microscopy [7]: inhibited; Morphology of treated G. lamblia [7]: altered
4 | CCS(=O)(=O)CCn1c([N+](=O)[O-])cnc1C [Compound 2, tinidazole] | – | – | – | – | – | – | – | – | – | – | – | – | – | – | – | Plasma protein binding [8]: mostly unbound
5 | CCOC(=O)c1nc([N+](=O)[O-])cn1Cc1ccc(OC(F)(F)F)cc1 [Compound 14c, Ethyl 4-nitro-1-(4-(trifluoromethoxy)benzyl)-1H-imidazole-2-carboxylate] | 6 | 6.03 | >17 | – | – | 51 | 51.3 | – | – | > 64 | > 64 | – | – | – | – | CC50 at 24 h [3]: > 100 µM; CC50 at 24 h [4]: > 100 µM; melting point: 112 °C
6 | CN(C)C(=O)c1ncc([N+](=O)[O-])n1C [Compound 8g, N,N,1-trimethyl-5-nitro-1H-imidazole-2-carboxamide] | 2.4 | 2.4 | >42 | > 20 | > 20 | 14 | 14.1 | 1.3 | 1.29 | 32 (≈ 161 µM) | 64 (≈ 323 µM) | > 100 | > 100 | – | – | Activity in in vivo mouse model of T. vaginalis infection (T. vaginalis): activity; Activity in in vivo model of H. meleagridis infection (H. meleagridis): activity
7 | O=C(c1ncc([N+](=O)[O-])[nH]1)N1CCOCC1 [Compound 12h, Morpholino(5-nitro-1H-imidazol-2-yl)methanone] | 8.8 | 8.71 | >11 | > 20 | > 20 | 5.1 | 5.13 | 2.9 | 2.88 | 2 (≈ 8.84 µM) | 2 (≈ 8.84 µM) | > 100 | > 100 | 0.22 | 100 | –
8 | Cc1ncc([N+](=O)[O-])n1CCO [Compound 1, Metronidazole, reference compound] | 6.1 | 6.17 | – | 18 | 18.2 | – | – | – | – | 0.5 (≈ 2.92 µM) | 0.5 (≈ 2.92 µM) | > 100 | > 100 | – | – | EC50 (G. lamblia WB (MtzS); read-out: EC50 against G. lamblia strains, G. lamblia strains including metronidazole-resistant strains, stated together): 6.1 to 18 µM; EC50 (E. histolytica HM1:IMSS; MtzS, minimum n = 3, read-out: EC50 E. histolytica HM1:IMSS): 5 µM; EC50 (E. histolytica HM1:IMSS; MtzS, read-out: pEC50 ± SE E. histolytica HM1:IMSS (converted)): 5.01 µM; EC50 (T. vaginalis F1623; MtzS, minimum n = 3, read-out: EC50 T. vaginalis F1623): 0.8 µM; EC50 (T. vaginalis F1623; MtzS, read-out: pEC50 ± SE T. vaginalis F1623 (converted)): 0.794 µM; MIC ([1]; 630 and NAP1/027 strains together or strain not given, read-out: MIC C. difficile): 0.5 µg/mL (≈ 2.92 µM); fraction unbound at 30 min, 5 μM ([5]; plasma, Plasma protein binding (% bound)): > 0.95; Microsome stability (% remaining at 2 h) ([6]; human, microsomes): 100 % remaining; Parasite cell growth by microscopy [7]: inhibited; Morphology of treated G. lamblia [7]: remained similar to the vehicle control; Treatment failure in giardiasis cases (giardiasis): up to 20%; Plasma protein binding [8]: mostly unbound; Effect on Giardia cells in prior study (Giardia): slowed the rate of oscillation of the Giardia flagella
9 | CC(=O)OC[C@H]1O[C@@H]([S-])[C@H](OC(C)=O)[C@@H](OC(C)=O)[C@@H]1OC(C)=O.CCP(CC)CC.[Au+] [auranofin] | – | – | – | – | – | – | – | – | – | – | – | – | – | – | – | Effect on Giardia cells in prior study (Giardia): caused cell blebbing
10 | O=C(Nc1ncc([N+](=O)[O-])s1)c1ccccc1O [tizoxanide] | – | – | – | – | – | – | – | – | – | – | – | – | – | – | – | Plasma protein binding ([8]; active metabolite of nitazoxanide): highly plasma protein bound
